Read-outs that look alike come from different tables or passages of the source.

We go through 17 compounds from patent publication US12643879B2, “Functionalized heterocyclic compounds as modulators of stimulator of interferon genes (STING)” (RYVU THERAPEUTICS S.A., priority 2019, dated 2026).

One assay deals with human STING (Homo sapiens, UniProt Q86WV6). In words: Fluorescence Thermal Shift assay (binding to STING). Particulars: STING 0.1 mg/mL, SyproOrange, 25 to 99° C. Here is the method:
Compounds, constructs and conjugates of the present invention were tested for binding to human STING in Fluorescence Thermal Shift assay. STING was preincubated with the compounds for 20 minutes in 50 mM Hepes, 150 mM NaCl, pH 7.5 in 15 or 16 μl volume, following by adding 4 μl of SyproOrange dye dilution (ThermoFisher, cat no. S-6651). Final STING concentration was 0.1 mg/mL. Thermal unfolding was performed in Real-Time PCR QuantStudio 6 Flex System (Applied Biosystems), from 25 to 99° C., with continuous ramp mode and ramp rate 0.033° C./s. The data were analyzed using Protein Thermal Shift Software (ThermoFisher).

The test system of assay [1] is interferon regulatory factor (IRF) pathway in THP-1 dual cells. In words: THP-1 Dual reporter assay, IRF pathway (luciferase). The following applies: Homo sapiens, THP1-Dual, read-out: THP1 Dual EC50 (μM) IRF. It is filed as cell-based. The method in brief: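 Dual-reporter THP-1 cells treated 18 h with STING agonist; secreted luciferase (IRF) and SEAP (NF-κB) quantified from medium by luminescence and colorimetric absorbance, respectively.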
A general note: A reporter such as luciferase makes a cellular process visible.

Assay [2] relates to NF-κB pathway in THP-1 dual cells. In words: THP-1 Dual reporter assay, NF-κB pathway (SEAP). It is filed as cell-based. The following applies: Homo sapiens, THP1-Dual, read-out: THP1 Dual EC50 (μM) NFkB. The method in brief: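 IRF output: ISRE-ISG54 luciferase in collected medium, luminescence measured immediately on reagent addition. NF-κB output: SEAP under NF-κB-element IFN-β promoter, detection medium 1 or 2 h at 37° C, absorbance 630 or 655 nm. Cells were stimulated with STING agonist for 18 h beforehand.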

Setting [3] is: 18 h stimulation, absorbance at 630 or 655 nm.

Chain of human STING (Q86WV6 whole entry H232R): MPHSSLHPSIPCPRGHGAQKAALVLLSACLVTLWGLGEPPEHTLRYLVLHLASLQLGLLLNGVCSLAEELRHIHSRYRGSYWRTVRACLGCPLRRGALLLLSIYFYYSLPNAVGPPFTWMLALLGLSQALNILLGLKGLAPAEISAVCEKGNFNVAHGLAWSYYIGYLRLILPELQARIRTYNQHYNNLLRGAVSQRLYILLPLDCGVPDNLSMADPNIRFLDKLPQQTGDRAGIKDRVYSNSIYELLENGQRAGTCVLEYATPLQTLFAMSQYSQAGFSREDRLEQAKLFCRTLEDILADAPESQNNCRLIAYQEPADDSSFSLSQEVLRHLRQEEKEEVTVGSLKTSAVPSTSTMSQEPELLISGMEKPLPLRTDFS

Broadly, the EC50 is the midpoint of the concentration-response curve. In the case of `Cc1cc(CN(Cc2cn(C)c3cc(N4CCC(C(=O)O)CC4)ccc3c2=O)[C@H]2CCCN(c3cccnc3)C2)ccn1` [Example 46, 1-[1-methyl-3-({[(2-methylpyridin-4-yl)methyl][(3S)-1-(pyridin-3-yl)piperidin-3-yl]amino}methyl)-4-oxo-1,4-dihydroquinolin-7-yl]piperidine-4-carboxylic acid], the “hSTING FTS binding assay (ΔT C. °)” value at human STING is “++ (++=10<ΔTm <20° C.)”. Moreover, the half-maximal effective concentration (EC50) in assay [1] (18 h) and in assay [2] (18 h) was > 10 µM throughout.
With `Cc1ccc(N2CCC[C@H](N(Cc3ccnc(C)c3)Cc3cn(C4CC4)c4cc(N5CCC(C(=O)O)CC5)c(F)cc4c3=O)C2)cn1` [Example 67, 1-[1-cyclopropyl-6-fluoro-3-({[(3S)-1-(6-methylpyridin-3-yl)piperidin-3-yl][(2-methylpyridin-4-yl)methyl]amino}methyl)-4-oxo-1,4-dihydroquinolin-7-yl]piperidine-4-carboxylic acid], the “hSTING FTS binding assay (ΔT C. °)” value at human STING was “+++ (+++=ΔTm ≥20° C.)”. The EC50 was in the range of 1 to 10 µM in assay [1] (18 h stimulation, luminescence) and 1 to 10 µM in assay [2] (setting [3]).
As to `Cc1ccc(N2CCC[C@H](N(Cc3ccnc(C)c3)Cc3cn(CCN)c4ccccc4c3=O)C2)cn1` [Example 18, 1-(2-Aminoethyl)-3-({[(3S)-1-(6-methylpyridin-3-yl)piperidin-3-yl][(2-methylpyridin-4-yl)methyl]amino}methyl)-1,4-dihydroquinolin-4-one], the “hSTING FTS binding assay (ΔT C. °)” value at human STING was “+ (+=ΔTm ≤10° C.)”. Moreover, the EC50 in assay [1] (18 h) and in assay [2] (18 h) was 1 to 10 µM each time.
With `Cc1ccc(N2CCC[C@H](N(Cc3ccnc(C)c3)Cc3cn(C)c4cc(N5CC[C@@H](O)C5)ccc4c3=O)C2)cn1` [Example 23, 7-[(3R)-3-hydroxypyrrolidin-1-yl]-1-methyl-3-({[(3S)-1-(6-methylpyridin-3-yl)piperidin-3-yl][(2-methylpyridin-4-yl)methyl]amino}methyl)-1,4-dihydroquinolin-4-one], at human STING, the “hSTING FTS binding assay (ΔT C. °)” value is listed as “++ (++=10<ΔTm <20° C.)”. Moreover, the EC50 in assay [1] (18 h stimulation, luminescence) was < 1 µM; in assay [2] (setting [3]) it was < 1 µM.
On to `Cc1cc(CN(Cc2cn(C3COC3)c3ccccc3c2=O)[C@H]2CCCN(c3ccc(N)nc3)C2)ccn1` [Example 35, 3-({[(3S)-1-(6-aminopyridin-3-yl)piperidin-3-yl][(2-methylpyridin-4-yl)methyl]amino}methyl)-1-(oxetan-3-yl)-1,4-dihydroquinolin-4-one], for which, at human STING, the “hSTING FTS binding assay (ΔT C. °)” value is “+++ (+++=ΔTm ≥20° C.)”. Besides, the EC50 in assay [1] (18 h stimulation, luminescence) was < 1 µM; in assay [2] (setting [3]), < 1 µM.
For `Cc1ccc(N2CCC[C@H](N(Cc3ccnc(C)c3)Cc3cn(C4CC4)c4cc(N5CCC(F)(CN)C5)c(F)cc4c3=O)C2)cn1` (stereo partly drawn) [Example 30, 7-[3-(aminomethyl)-3-fluoropyrrolidin-1-yl]-1-cyclopropyl-6-fluoro-3-({[(3S)-1-(6-methylpyridin-3-yl)piperidin-3-yl][(2-methylpyridin-4-yl)methyl]amino}methyl)-1,4-dihydroquinolin-4-one], on human STING, the “hSTING FTS binding assay (ΔT C. °)” value is recorded as “+++ (+++=ΔTm ≥20° C.)”. For the same compound, the concentration giving a half-maximal response (EC50) in assay [1] (18 h stimulation, luminescence) was < 1 µM; in assay [2] (setting [3]) it was < 1 µM.
In the case of `Cc1ccc(N2CCC[C@H](N(Cc3ccnc(C)c3)Cc3cn(C4CC4)c4cc(N5CC[C@@H](CN)C5)c(F)cc4c3=O)C2)cn1.Cl` [Example 20, 7-[(3S)-3-(aminomethyl)pyrrolidin-1-yl]-1-cyclopropyl-6-fluoro-3-({[(3S)-1-(6-methylpyridin-3-yl)piperidin-3-yl][(2-methylpyridin-4-yl)methyl]amino}methyl)-1,4-dihydroquinolin-4-one hydrochloride], the “hSTING FTS binding assay (ΔT C. °)” value at human STING is reported as “+++ (+++=ΔTm ≥20° C.)”. For the same compound, the EC50 is < 1 µM in assay [1] (18 h stimulation, luminescence) and < 1 µM in assay [2] (setting [3]).
Take `Cc1ccc(N2CCC[C@H](N(Cc3ccnc(C)c3)Cc3cn(C4CC4)c4cc(OCCN)c(F)cc4c3=O)C2)cn1` [Example 10, 7-(2-Aminoethoxy)-1-cyclopropyl-6-fluoro-3-({[(3S)-1-(6-methylpyridin-3-yl)piperidin-3-yl][(2-methylpyridin-4-yl)methyl]amino}methyl)-1,4-dihydroquinolin-4-one]: the “hSTING FTS binding assay (ΔT C. °)” value at human STING is recorded as “+++ (+++=ΔTm ≥20° C.)”. Besides, the EC50 in assay [1] (18 h stimulation, luminescence) is < 1 µM; in assay [2] (setting [3]) it was < 1 µM.
Consider `Cc1ccc(N2CCC[C@H](N(Cc3ccnc(C)c3)Cc3cn(C4CC4)c4cc(N5CCC[C@H](N)C5)c(F)cc4c3=O)C2)cn1` [Example 16, 7-[(3S)-3-Aminopiperidin-1-yl]-1-cyclopropyl-6-fluoro-3-({[(3S)-1-(6-methylpyridin-3-yl)piperidin-3-yl][(2-methylpyridin-4-yl)methyl]amino}methyl)-1,4-dihydroquinolin-4-one], for which the “hSTING FTS binding assay (ΔT C. °)” value at human STING is given as “+++ (+++=ΔTm ≥20° C.)”. Also, the EC50 in assay [1] (18 h stimulation, luminescence) is < 1 µM; in assay [2] (setting [3]), < 1 µM.
As for `Cc1cnc(N2C[C@@H](F)C[C@H](N(Cc3ccnc(C)c3)Cc3cn(C4CC4)c4cc(N5CCC[C@H](O)C5)c(F)cc4c3=O)C2)cn1` [Example 82, 1-cyclopropyl-6-fluoro-3-({[(3S,5S)-5-fluoro-1-(5-methylpyrazin-2-yl)piperidin-3-yl][(2-methylpyridin-4-yl)methyl]amino}methyl)-7-[(3S)-3-hydroxypiperidin-1-yl]-1,4-dihydroquinolin-4-one], the “hSTING FTS binding assay (ΔT C. °)” value at human STING is given as “++ (++=10<ΔTm <20° C.)”. The concentration giving a half-maximal response (EC50) in assay [1] (18 h stimulation, luminescence) was < 1 µM; in assay [2] (setting [3]) it was < 1 µM.
`Cc1ccc(N2CCC[C@H](N(Cc3ccnc(C)c3)Cc3cn(C4CC4)c4cc(N5CC[C@@H](O)C5)c(F)cc4c3=O)C2)cn1.Cl` [Example 14, 1-Cyclopropyl-6-fluoro-7-[(3R)-3-hydroxypyrrolidin-1-yl]-3-({[(3S)-1-(6-methylpyridin-3-yl)piperidin-3-yl][(2-methylpyridin-4-yl)methyl]amino}methyl)-1,4-dihydroquinolin-4-one hydrochloride]: at human STING, the “hSTING FTS binding assay (ΔT C. °)” value is “+++ (+++=ΔTm ≥20° C.)”. For the same compound, the EC50 in assay [1] (18 h stimulation, luminescence) was < 1 µM; in assay [2] (setting [3]), < 1 µM.
As to `Cc1ccc(N2CCC[C@H](N(Cc3ccnc(C)c3)Cc3cn(C4CC4)c4cc(N5CC[C@H](N)C5)c(F)cc4c3=O)C2)cn1.Cl` [Example 13, 7-[(3S)-3-Aminopyrrolidin-1-yl]-1-cyclopropyl-6-fluoro-3-({[(3S)-1-(6-methylpyridin-3-yl)piperidin-3-yl][(2-methylpyridin-4-yl)methyl]amino}methyl)-1,4-dihydroquinolin-4-one hydrochloride], the “hSTING FTS binding assay (ΔT C. °)” value at human STING is on record as “+++ (+++=ΔTm ≥20° C.)”. Moreover, the EC50 in assay [1] (18 h stimulation, luminescence) is < 1 µM; in assay [2] (setting [3]), < 1 µM.
In the case of `Cc1cc(CN(Cc2cn(C)c3ccccc3c2=O)[C@H]2CCCN(c3ccc(N)nc3)C2)ccn1` [Example 2, 3-({[(3S)-1-(6-Aminopyridin-3-yl)piperidin-3-yl][(2-methylpyridin-4-yl)methyl]amino}methyl)-1-methyl-1,4-dihydroquinolin-4-one], the “hSTING FTS binding assay (ΔT C. °)” value on human STING is reported as “+++ (+++=ΔTm ≥20° C.)”. Besides, the 50% effective concentration (EC50) in assay [1] (18 h stimulation, luminescence) is < 1 µM; in assay [2] (setting [3]), < 1 µM.
Take `Cc1ccc(N2CCC[C@H](N(Cc3ccnc(C)c3)Cc3cn(C4CC4)c4cc(NCCN)c(F)cc4c3=O)C2)cn1` [Example 8, 7-[(2-Aminoethyl)amino]-1-cyclopropyl-6-fluoro-3-({[(3S)-1-(6-methylpyridin-3-yl)piperidin-3-yl][(2-methylpyridin-4-yl)methyl]amino}methyl)-1,4-dihydroquinolin-4-one]: the “hSTING FTS binding assay (ΔT C. °)” value at human STING was “+++ (+++=ΔTm ≥20° C.)”. Further, the EC50 in assay [1] (18 h stimulation, luminescence) was < 1 µM; in assay [2] (setting [3]) it was < 1 µM.
`Cc1ccc(N2CCC[C@H](N(Cc3ccnc(C)c3)Cc3cn(C4CC4)c4cc(NCCN(C)C)c(F)cc4c3=O)C2)cn1` [Example 9, 1-Cyclopropyl-7-{[2-(dimethylamino)ethyl]amino}-6-fluoro-3-({[(3S)-1-(6-methylpyridin-3-yl)piperidin-3-yl][(2-methylpyridin-4-yl)methyl]amino}methyl)-1,4-dihydroquinolin-4-one]: the “hSTING FTS binding assay (ΔT C. °)” value at human STING is “+++ (+++=ΔTm ≥20° C.)”. Besides, the EC50 was < 1 µM in assay [1] (18 h stimulation, luminescence) and < 1 µM in assay [2] (setting [3]).
Consider `Cc1cc(CN(Cc2cn(C(C)C)c3ccccc3c2=O)[C@H]2CCCN(c3ccc(N)nc3)C2)ccn1.Cl` [Example 34, 3-({[(3S)-1-(6-aminopyridin-3-yl)piperidin-3-yl][(2-methylpyridinyl-4-yl)methyl]amino}methyl)-1-(propan-2-yl)-1,4-dihydroquinolin-4-one hydrochloride], for which, on human STING, the “hSTING FTS binding assay (ΔT C. °)” value is recorded as “+++ (+++=ΔTm ≥20° C.)”. The EC50 in assay [1] (18 h stimulation, luminescence) was < 1 µM; in assay [2] (setting [3]), < 1 µM.
Take `Cc1ccc(N2CCC[C@H](N(Cc3ccnc(C)c3)Cc3cn(C4CC4)c4cc(N5CCC(O)CC5)c(F)cc4c3=O)C2)cn1.Cl` [Example 32, 1-cyclopropyl-6-fluoro-7-(4-hydroxypiperidin-1-yl)-3-({[(3S)-1-(6-methylpyridin-3-yl)piperidin-3-yl][(2-methylpyridin-4-yl)methyl]amino}methyl)-1,4-dihydroquinolin-4-one hydrochloride]: the “hSTING FTS binding assay (ΔT C. °)” value at human STING is “+++ (+++=ΔTm ≥20° C.)”. Moreover, the EC50 in assay [1] (18 h stimulation, luminescence) was < 1 µM; in assay [2] (setting [3]), < 1 µM.
